Reference: ChEMBL document CHEMBL3988442, “University of Dundee, Small-Polar-MMV Screening Library” (2021)

System: Schistosoma mansoni
Assay: High throughput screening of compounds against Schistosoma mansoni motility
Assay type: functional
Set-up: dose or concentration left out as unconfirmed

| Structure (SMILES) | Percent Effect |
| --- | --- |
| CCC(O)CNC(=O)c1coc(COc2ccc3sc(C)nc3c2)n1 (stereo unspecified) | -24.85% |
| CC(C)NC(=O)[C@@H]1C[C@H](N)CN1C(=O)c1cc2c([nH]c1=O)CCCC2 | -18.08% |
| CS(=O)(=O)CCNC(=O)C1(c2cccc(Cl)c2)CCCCC1 | 34.87% |
| Cc1ccc(N2CCN(C(=O)COc3nccc(C)n3)CC2)nn1 | -46.68% |
| CCn1nc(C(C)C)cc1C(=O)NCCCOC | -51.54% |
| O=C(NS(=O)(=O)c1cc(Cl)sc1Cl)c1cccc2c1OCCO2 | -35.56% |
| Cc1cc(CN2CCN(C(=O)C(C)C)[C@@H]3CS(=O)(=O)C[C@@H]32)ccc1F | 10.81% |
| O=C(CN1CCCC1Cn1cncn1)Nc1cccnc1 (stereo unspecified) | -24.16% |
| O=C(c1ccc(=O)[nH]n1)N1CC(c2nc(Cc3ccccc3)no2)C1 | -36.12% |
| O=C(CCc1ccccc1)C1CCCN(C(=O)c2ncc(F)cc2F)C1 (stereo unspecified) | -32.14% |
| CC(=O)N1CCC(C(=O)NCCN2CCC(C)CC2)CC1 | 14.05% |
| Cc1n[nH]c(C2CN(C(=O)CCc3ccsc3)CCO2)n1 (stereo unspecified) | -49.32% |
| Cc1ncc(CNC(=O)Nc2cc(C(F)(F)F)c[nH]c2=O)s1 | -39.38% |
| Cc1ncc(-c2nc3cc(S(=O)(=O)N4CCCC4)ccc3n2C)cn1 | -72.39% |
| Cc1ncsc1CCC(=O)NCc1cc2n(n1)CCN(C(=O)N(C)C)C2 | 10.91% |
| CCn1c(N)nc2cc(C(=O)NCc3ccccc3Cl)cnc21 | -40.17% |
| CC(C)(C)c1cc(CN2CC[C@@H](NC(=O)c3cccnc3)[C@H](O)C2)n[nH]1 | -5.341% |
| O=C(c1cccc(S(=O)(=O)NCCCc2ccco2)c1)N1CCOCC1 | -44.89% |
| Cc1cccc(N2CCC(NC(=O)CCCc3cccs3)CC2)n1 | -13.77% |
| O=C1CCSCC(C(=O)N2CCCC2)N1 (stereo unspecified) | -27.13% |
| CC(=O)N1CCC(C(=O)NCCN2CCCCC2)CC1 | 25.49% |
| Cl.Cl.OC(CN1CCN(Cc2ccc(F)c(F)c2)CC1)C1CC1 (stereo unspecified) | -57.04% |
| CCOCCNc1nc(C2CCCC2)nc2c1cnn2C | -80.64% |

| Structure (SMILES) | Percent Effect |
| --- | --- |
| CSCCCN1CCn2nc(CNC(C)=O)cc2C1 | -25.09% |
| CCCNC(=O)Cn1nc(C(C)C)c2cnn(C(C)(C)C)c2c1=O | -27.62% |
| CCc1nc(CN2CCCC(N(C)Cc3cnc(C)s3)C2)no1 (stereo unspecified) | 23.33% |
| CCc1noc(C(C)N(C)CC(=O)Nc2ccc(C)cc2)n1 (stereo unspecified) | -42.61% |
| Cc1nn(C)c(N(C)C)c1CNCC(O)c1ccccc1 (stereo unspecified) | -48.71% |
| O=C(c1cnc(COc2ccccc2)nc1O)N1CCOCC1 | 1.503% |
| CCN1CC2(CCC1=O)CCN(C(=O)c1ccc(Cl)cc1O)CC2 | -8.652% |
| CCc1ccccc1CN1CC[C@@H](NC(=O)c2cccnc2)[C@H](O)C1 | -49.14% |
| CN(CCN1CCCCCC1)C(=O)c1cc(CN2CCC(O)CC2)on1 | -17.62% |
| Cc1ccsc1CN(Cc1ccccn1)CC(C)C | 6.222% |
| O=C(NCCCn1cccn1)C1(c2ccc(Br)cc2)CC1 | 14.19% |
| O=C(CCc1cscn1)NS(=O)(=O)c1ccc2ccccc2c1 | 22.96% |
| CCc1cnc(CN(C)C2CCN(CCS(C)(=O)=O)C2)o1 (stereo unspecified) | -9.705% |
| CC(C)NC(=O)[C@@H]1C[C@H](N)CN1C(=O)c1cc2ccccc2[nH]c1=O | -4.577% |
| CSCC(=O)N1C[C@H]2CC[C@@H]1CN(Cc1ccccc1)C2 | 13.06% |
| Cc1n[nH]c(C)c1C1CCCN1C(=O)NCCSC(C)(C)C (stereo unspecified) | -28.72% |
| CC(C#N)CSc1ccccc1NCC(=O)Nc1ccc(F)cc1 (stereo unspecified) | 55.09% |
| CNC(=O)CS(=O)(=O)C1CCN(S(=O)(=O)c2c(F)cccc2F)CC1 | -27.81% |
| CCn1nc2c(cc1=O)CN(Cc1nc3ccccc3c(=O)[nH]1)CC2 | -62.65% |
| Cc1nc(C)n(CC2CN(CC(=O)Nc3nccs3)CCO2)n1 (stereo unspecified) | -3.889% |
| Cc1occc1C(=O)N1CCC2(CCC(=O)N(CC(N)=O)C2)CC1 | 13.97% |
| Oc1ccc(N2CCN(Cc3cc4c(cc3Br)OCCO4)CC2)cc1 | -18.88% |
| Cc1nc(C)n(CC2CCCN(CCc3ccncc3)C2)n1 (stereo unspecified) | -44.91% |

| Structure (SMILES) | Percent Effect |
| --- | --- |
| O=C(NC[C@@H]1CCCN1)c1cc(COc2cccc(C(F)(F)F)c2)[nH]n1 | 73.28% |
| O=C1CCCCN1Cc1cccc(NC(=O)N2CCSCC2)c1 | 22.51% |
| COC(=O)c1sccc1S(=O)(=O)NCC1(O)CCOc2ccccc21 (stereo unspecified) | -15.01% |
| COc1ccc(NC(C)C(=O)N2CCN(c3ncccn3)CC2)cn1 (stereo unspecified) | -56.07% |
| COc1cccc(C(=O)N2CCCC(C(=O)CCc3ccccc3)C2)c1 (stereo unspecified) | 20.31% |
| Cc1ccc(S(=O)(=O)NC(=O)c2cccc3c2OCCO3)c(C)c1 | -13.74% |
| Cc1ncsc1C(=O)N1CCCC(c2noc(C(C)C)n2)C1 (stereo unspecified) | -12.34% |
| CC(C)c1nnc2n1CC(CNCc1ccncc1)CC2 (stereo unspecified) | -34.29% |
| COc1ccccc1OCC(=O)Nc1ncccc1OC(F)F | 13.82% |
| C[C@@H]1CN(C2(C(=O)N3CCCCCC3)Cc3ccccc3C2)C[C@H](C)O1 | 12.64% |
| COc1ccccc1[C@@H]1CN(Cc2cc(C(C)(C)C)[nH]n2)C[C@H]1C(=O)O | 42.17% |
| Cc1cc(C(=O)N2CCC(c3nccn3CCCN(C)C)CC2)no1 | -19.46% |
| CC1(NC(=O)Cc2csc(C(C)(C)C)n2)CCS(=O)(=O)C1 (stereo unspecified) | -25.94% |
| CC(CN1CCOCC1)NCC1CCN(c2cnn(C)c(=O)c2)CC1 (stereo unspecified) | 33.93% |
| Cn1ccnc1-c1cccc(NC(=O)NCCN2CCOCC2)c1 | -15.26% |
| CC(c1ccccc1)n1c(SCC(=O)O)nnc1-c1ccccc1Cl (stereo unspecified) | 15.81% |
| c1csc(-c2nc(CN3CCCC3Cn3cncn3)co2)c1 (stereo unspecified) | -94.11% |
| CC1CCN(S(=O)(=O)c2cccn(CC(=O)NC3CCCC3)c2=O)CC1 | -45% |
| Cc1cnccc1N1CCCN(C(=O)CCCc2cn[nH]c2)CC1 | -14.12% |
| COc1ccc(CN(C)C(=O)CCc2c(C)nc(C)[nH]c2=O)cc1OC | -19.42% |
| CC1CCN(Cc2cnc(S(=O)(=O)CC3CC3)n2CC2CCCO2)CC1 (stereo unspecified) | -34.33% |
| Cn1cc(-c2csc(N3CCOCC3)n2)cn1 | 7.634% |
| CCc1nnc(CN(C)c2nc(C(C)C)nc3c2cnn3C)o1 | -37.68% |

| Structure (SMILES) | Percent Effect |
| --- | --- |
| CC[C@@]1(O)CCN(C(=O)c2ccsc2)C[C@H]1O | -27.08% |
| Cc1ccc(C(=O)N2CCCC2c2nnc3n2CCCCC3)o1 (stereo unspecified) | -40.92% |
| COc1ccc(OC)c(-c2nc(CN(C)Cc3nncn3C)c(C)o2)c1 | -42.05% |
| Cc1noc(C)c1CCC(=O)N1CCN(CCn2cccn2)CC1 | -23.72% |
| Cc1nc(C)n(CC2CN(CCc3ccncc3)CCO2)n1 (stereo unspecified) | -26.46% |
| CC(=O)N1CCC(Oc2ccc(Cl)cn2)CC1 | -33.97% |
| O=C(Nc1cccc(CN2CCOC2=O)c1)N1CCOCC1 | 11.29% |
| CN(C)C(CNC(=O)c1cccc(-n2cnnn2)c1)c1ccccc1Cl (stereo unspecified) | 53.46% |
| NC(=O)CSCCC(=O)N1CCCC1c1ccsc1 (stereo unspecified) | 10.97% |
| CN(CCCNc1cc(N2CCCC2CO)ncn1)S(C)(=O)=O (stereo unspecified) | -51.96% |
| O=C(CCc1nccs1)N1CCCC(N2CCNC2=O)C1 (stereo unspecified) | -31.05% |
| Cc1ccc(-c2cn[nH]c2C2CCCN(c3nccc(N)n3)C2)cc1 (stereo unspecified) | 94.46% |
| CCOCCN1CCN(Cc2nc(C3CC3)no2)CC1CC (stereo unspecified) | -35.07% |
| COCCN1CCC(CN(CC2CCCO2)C(=O)CCNC(C)=O)CC1 (stereo unspecified) | -20.27% |
| Cc1ccc(CNCC2CCc3nnc(C(C)C)n3C2)s1 (stereo unspecified) | 21.49% |
| CC(C)NC(=O)c1nnn(-c2cccc(C(F)(F)F)c2)c1N | 32.01% |
| CS(=O)(=O)N1CCC(Oc2ccc(C(=O)N3CCSCC3)cc2Cl)CC1 | -0.7709% |
| Cn1c(C(F)(F)F)nn(CCNC(=O)NCc2ccccc2)c1=O | 16.6% |
| CS(=O)(=O)c1ccc(CNCC2CCN(CCO)CC2)cc1 | -49.34% |
| Cn1cnnc1S(=O)(=O)C1CCN(S(=O)(=O)c2c(Cl)cccc2Cl)CC1 | -2.116% |
| COc1ccccc1CC(=O)NCCCN1CCCC1C(=O)N(C)C (stereo unspecified) | -6.29% |
| CCCN1CCCn2nc(CNC(=O)CCc3scnc3C)cc2C1 | 25.43% |
| CCCNC(=O)N1CCC(Oc2cc(C)ccc2F)(C(=O)O)CC1 | 27.97% |

| Structure (SMILES) | Percent Effect |
| --- | --- |
| Cn1cnc(S(=O)(=O)N2CCCC2)c1Cl | -11.59% |
| CC(C)S(=O)(=O)NCC1CCCN(C(=O)c2ccc3c(c2)CCC3)C1 (stereo unspecified) | -22.55% |
| NC(=O)COc1cccc(C(=O)Nc2cnc3n2CCCC3)c1 | -21.49% |
| Cc1nc(C2CCCN(C(=O)c3sccc3C3CC3)C2)no1 (stereo unspecified) | -33.52% |
| CC(Cn1cccn1)NC(=O)Nc1ccc(F)cc1 (stereo unspecified) | -15.2% |
| CCCc1cc(=O)[nH]c2nnc(SCC(=O)NCc3ccc(C)cc3)n12 | -78.33% |
| O=C(CCc1cc2n(n1)CCCN(C(=O)c1ccccn1)C2)NC1CC1 | -25.84% |
| COc1cccc(CNc2c(C)cnc3c2c(=O)n(C)c(=O)n3C)c1 | 5.662% |
| CC(C)(C(=O)NCC(N)=O)c1ccccc1F | 10.05% |
| Cc1cc(C)n(CC2CCCN2C(=O)c2ccc3[nH]nnc3c2)n1 (stereo unspecified) | -6.294% |
| CCCN(CCO)C(=O)C1CCC(=O)N(CCc2ccc(Cl)cc2)C1 (stereo unspecified) | -16.9% |
| O=C(CCc1nccs1)N1CCC(N2CCNC2=O)CC1 | -51.15% |
| Cc1ccc(C(=O)NC(C)CN2CCCC2=O)c(=O)[nH]1 (stereo unspecified) | -45.23% |
| Cc1ccn(-c2ccccc2NCc2cccnc2C)n1 | -3.196% |
| Cc1csc(N2CCN(CCc3ccccn3)CC2C)n1 (stereo unspecified) | -16.94% |
| c1cc2c(cc1C1CCCN1Cc1nnnn1C1CC1)OCCO2 (stereo unspecified) | 5.096% |
| CCc1nc2n(n1)CC(Nc1cc(C)nc3ncnn13)CC2 (stereo unspecified) | -43.49% |
| Cn1c(C(F)(F)F)nn(CCNC(=O)c2cnc3ccccc3n2)c1=O | -7.141% |
| Cc1nc[nH]c1CN1C[C@@H]2CC[C@H](C1)N(C(=O)CCNS(C)(=O)=O)C2 | 1.774% |
